In test [1] the test system is Mus musculus. Kind of test: Antitussive activity in ammonia liquor-induced cough ICR mouse model assessed as reduction in cough frequency at 50 mg/kg, po treated with ammonia 1 hr before and 1 hr after test compound dosing measured for 3 mins relative to control. The format is functional.
Test [2] deals with Mus musculus. Kind of test: Antitussive activity in ammonia liquor-induced cough ICR mouse model assessed as reduction in cough frequency at 50 mg/kg, po treated with ammonia 1 hr before and 2.5 hrs after test compound dosing measured for 3 mins relative to control. It counts as functional.
In test [3] the test system is Mus musculus. Kind of test: Antitussive activity in ammonia liquor-induced cough ICR mouse model assessed as reduction in cough frequency at 20 mg/kg, po treated with ammonia 1 hr before and 2.5 hrs after test compound dosing measured for 3 mins. The format is functional, organism-based.
Test [4] deals with Mus musculus. Kind of test: Antitussive activity in ammonia liquor-induced cough ICR mouse model assessed as reduction in cough frequency at 20 mg/kg, po treated with ammonia 1 hr before and 5 hrs after test compound dosing measured for 3 mins. The format is functional, organism-based.
For test [5], the system named is Mus musculus. Kind of test: Antitussive activity in ammonia liquor-induced cough ICR mouse model assessed as reduction in cough frequency at 50 mg/kg, po treated with ammonia 1 hr before and 5 hrs after test compound dosing measured for 3 mins relative to control. It counts as functional.
Test [6] concerns Mus musculus. Kind of test: Antitussive activity in ammonia liquor-induced cough ICR mouse model assessed as reduction in cough frequency at 20 mg/kg, po treated with ammonia 1 hr before and 1 hr after test compound dosing measured for 3 mins. The format is functional, organism-based.
Test [7] concerns Mus musculus. Kind of test: Antitussive activity in ammonia liquor-induced cough ICR mouse model assessed as reduction in cough frequency at 50 mg/kg, po treated with ammonia 1 hr before and 1 to 5 hrs after test compound dosing measured for 3 mins in presence of opioid receptor antagonist naloxone relative to control. It counts as functional, organism-based.
The subject of test [8] is Mus musculus. Kind of test: Antitussive activity in ammonia liquor-induced cough ICR mouse model assessed as reduction in cough frequency at 50 mg/kg, po treated with ammonia 1 hr before and 1 to 5 hrs after test compound dosing measured for 3 mins relative to control. The format is functional. Set-up: scale not given: the % may be the effect or the level left.
The test system of test [9] is Mus musculus. Kind of test: Antitussive activity in ammonia liquor-induced cough ICR mouse model assessed as reduction in cough frequency at 50 mg/kg, po treated with ammonia 1 hr before and 1 hr after test compound dosing measured for 3 mins in presence of 5-HT receptor antagonist methysergide relative to control. The format is functional.
Test [10] concerns Mus musculus. Kind of test: Expectorant activity in ICR mouse assessed as increase in phenol red secretion in trachea at 50 mg/kg, po for 3 days followed by phenol red treatment at 30 mins post last dose measured after 30 mins by UV-Vis spectrophotometric assay relative to control. The format is functional.
The test system of test [11] is Mus musculus. Kind of test: Expectorant activity in ICR mouse assessed as phenol red secretion in trachea at 20 to 50 mg/kg, po for 3 days followed by phenol red treatment at 30 mins post last dose measured after 30 mins by UV-Vis spectrophotometric assay relative to control. The format is functional.
For test [12], the system named is Mus musculus. Kind of test: Antitussive activity in ammonia liquor-induced cough ICR mouse model assessed as reduction in cough frequency at 50 mg/kg, po treated with ammonia 1 hr before and 1 hr after test compound dosing measured for 3 mins in presence of ATP-sensitive K+ channel blocker glibenclamide relative to control. The format is functional.
Test [13] relates to Mus musculus. Kind of test: Antitussive activity in ammonia liquor-induced cough ICR mouse model assessed as increase in latent period at 50 mg/kg, po treated with ammonia 1 hr before and 1 hr after test compound dosing measured at 1 hr post dose. The format is functional, organism-based.
Test [14] deals with Mus musculus. Kind of test: Antitussive activity in ammonia liquor-induced cough ICR mouse model assessed as reduction in cough frequency at 20 mg/kg, po treated with ammonia 1 hr before and 1 to 5 hrs after test compound dosing measured for 3 mins relative to control. The format is functional, organism-based.
Test [15] deals with Mus musculus. Kind of test: Antitussive activity in ammonia liquor-induced cough ICR mouse model assessed as increase in latent period at 50 mg/kg, po treated with ammonia 1 hr before and 1 to 5 hrs after test compound dosing measured for 3 mins relative to control. It counts as functional.
Test [16] deals with Mus musculus. Kind of test: Antitussive activity in ammonia liquor-induced cough ICR mouse model assessed as increase in latent period at 20 mg/kg, po treated with ammonia 1 hr before and 1 to 5 hrs after test compound dosing measured at 1 hr post dose. It counts as functional, organism-based.

The source made the active and inactive calls. No cut-off for these calls is given here.

Consider `CC(C)=CCc1cc(-c2coc3cc(O)c(CC=C(C)C)c(O)c3c2=O)cc(O)c1O`, for which the outcome in the test with Mus musculus [1], in the test on Mus musculus [2], with Mus musculus [3], in the test with Mus musculus [4], in the test on Mus musculus [5] and in the test on Mus musculus [6] was inactive.

On to `O=C1C[C@@H](c2ccc(O)cc2)Oc2cc(O)ccc21` [LIQUIRTIGENIN], for which the result in the test with Mus musculus [7] and in the test on Mus musculus [5] was Active. In addition, the Activity in the test with Mus musculus [8] is on record as 30 - 78%; with Mus musculus [11] it was 156.7%. In addition, the result in the test with Mus musculus [9] and with Mus musculus [12] was inactive. Also, the “fold change (FC)” value in the test with Mus musculus [10] is 1.57.

For the compound `O=C1C[C@@H](c2ccc(O[C@@H]3O[C@H](CO)[C@@H](O)[C@H](O)[C@H]3O)cc2)Oc2cc(O)ccc21` [LIQUIRITIN], the outcome in the test with Mus musculus [7], in the test on Mus musculus [2] and in the test with Mus musculus [5] was Active. The Activity in the test with Mus musculus [8] is listed as 30 - 78%; in the test with Mus musculus [11], 249.8%. The result in the test with Mus musculus [9] and in the test on Mus musculus [12] was inactive. Further, in the test on Mus musculus [10], the “fold change (FC)” value is given as 2.5.

Take `COc1c(CC=C(C)C)c(O)cc2oc(=O)c(-c3ccc(O)cc3O)cc12`: the result in the test on Mus musculus [1], in the test with Mus musculus [2], in the test on Mus musculus [3], in the test on Mus musculus [4], in the test with Mus musculus [5] and in the test on Mus musculus [6] was inactive.

`CC1(C)[C@@H](O)CC[C@]2(C)[C@H]3C(=O)C=C4[C@@H]5C[C@@](C)(C(=O)O)CC[C@]5(C)CC[C@@]4(C)[C@]3(C)CC[C@@H]12` [ENOXOLONE]: the Activity in the test on Mus musculus [8] is reported as 27 - 40%. Also, in the test with Mus musculus [10], the outcome was inactive.

Turning to `CC(C)=CCc1cc2c(=O)cc(-c3ccc(O)cc3)oc2cc1O`, the outcome in the test with Mus musculus [1], in the test with Mus musculus [2], with Mus musculus [3], with Mus musculus [4], in the test with Mus musculus [5] and in the test on Mus musculus [6] was inactive.

Take `O=C(/C=C/c1ccc(O[C@@H]2O[C@H](CO)[C@@H](O)[C@H](O)[C@H]2O)cc1)c1ccc(O)cc1O`: the result in the test on Mus musculus [1], in the test on Mus musculus [2], with Mus musculus [3], in the test with Mus musculus [4], with Mus musculus [5] and in the test with Mus musculus [6] was inactive.

For the compound `C=CC(C)(C)c1cc(/C=C/C(=O)c2ccc(O)cc2)c(OC)cc1O`, the outcome in the test on Mus musculus [1], in the test with Mus musculus [2], in the test on Mus musculus [3], with Mus musculus [4], in the test on Mus musculus [5] and with Mus musculus [6] was inactive.

Turning to `CC1(C)[C@@H](O[C@H]2O[C@H](C(=O)O)[C@@H](O)[C@H](O)[C@H]2O[C@@H]2O[C@H](C(=O)O)[C@@H](O)[C@H](O)[C@H]2O)CC[C@]2(C)[C@H]3C(=O)C=C4[C@@H]5C[C@@](C)(C(=O)O)CC[C@]5(C)CC[C@@]4(C)[C@]3(C)CC[C@@H]12`, the outcome in the test with Mus musculus [1], in the test with Mus musculus [2], with Mus musculus [3], with Mus musculus [4], in the test on Mus musculus [5] and in the test with Mus musculus [10] was inactive. In the test with Mus musculus [6], the result was inactive.

Take `COc1ccccc1OCC(O)CO` (stereo not given) [GUAIFENESIN]: in the test on Mus musculus [10], the “fold change (FC)” value was 3. For the same compound, the Activity in the test with Mus musculus [11] is reported as 299.5%.

With `CCN(CC)CCOCCOC(=O)C1(c2ccccc2)CCCC1.O=C(O)CC(O)(CC(=O)O)C(=O)O` [CARBETAPENTANE CITRATE], the result in the test with Mus musculus [13] was Active. The Activity in the test on Mus musculus [1] worked out at 58%; in the test with Mus musculus [2], 53%; with Mus musculus [5], 50%.

Regarding `O=C1C[C@@H](c2ccc(O[C@@H]3O[C@H](CO)[C@@H](O)[C@H](O)[C@H]3O[C@@H]3OC[C@](O)(CO)[C@H]3O)cc2)Oc2cc(O)ccc21`, the result in the test with Mus musculus [14] and in the test with Mus musculus [7] was Active. The “fold change (FC)” value is 1.3 - 1.9 with Mus musculus [15] and 1.97 in the test on Mus musculus [10]. Moreover, the Activity is 79.1% in the test with Mus musculus [1]; 30 - 78% with Mus musculus [8]; 30% in the test on Mus musculus [9]; 196.6% with Mus musculus [11]; 28.2% in the test with Mus musculus [12]. Besides, in the test on Mus musculus [16], the result was inactive.

Take `CC1(C)C=Cc2c(ccc3c2OC[C@@H](c2ccc(O)cc2O)C3)O1`: in the test with Mus musculus [2], the result was Active.

As for `O=C(/C=C/c1ccc(O)cc1)c1ccc(O)cc1O`, the outcome in the test on Mus musculus [1], in the test on Mus musculus [10] and in the test on Mus musculus [6] was inactive. Also, the result in the test with Mus musculus [2], in the test on Mus musculus [3], in the test on Mus musculus [4] and in the test on Mus musculus [5] was Active.

Consider `COc1cc(O)ccc1/C=C/C(=O)c1ccc(O)cc1`, for which the outcome in the test on Mus musculus [1], in the test with Mus musculus [2], in the test on Mus musculus [3], in the test with Mus musculus [4], in the test on Mus musculus [5] and with Mus musculus [6] was inactive.

Consider `O=C(/C=C/c1ccc(O[C@H]2O[C@@H](CO)[C@H](O)[C@@H](O)[C@@H]2O[C@@H]2OC[C@](O)(CO)[C@H]2O)cc1)c1ccc(O)cc1O`, for which the result in the test on Mus musculus [1] and in the test with Mus musculus [6] was Active. In addition, the outcome in the test on Mus musculus [2], with Mus musculus [3], in the test with Mus musculus [4] and with Mus musculus [5] was inactive.

For the origin of these results see ChEMBL document CHEMBL4184180, “Antitussive and expectorant activities of licorice and its major compounds” (2018).
